From the NIST ThermoML archive (doi:10.1021/acs.jced.8b00487)

Assay: xn = mol fraction of the nth substance listed
Details: 298.15 K, 101 kPa, Liquid, Vibrating tube method

CCCCC(CC)COP(=O)([O-])OCC(CC)CCCC.CCCCC(CC)COP(=O)([O-])OCC(CC)CCCC.CCCCC(CC)COP(=O)([O-])OCC(CC)CCCC.[Nd+3] (stereo not drawn) [neodymium(III) bis(2-ethylhexyl) phosphate] + CCCCC(CC)COP(=O)(O)OCC(CC)CCCC
Details	mass density [kg/m3]
x1 = 0.01187	976.8
x1 = 0.01364	975.7
x1 = 0.01427	977.3
x1 = 0.02626	981.7
x1 = 0.02653	983.6
x1 = 0.02822	983.8
x1 = 0.03921	988.6
x1 = 0.0402	987.6
x1 = 0.04214	990.4
x1 = 0.04446	991
x1 = 0.04708	992.1
x1 = 0.04955	991.6
x1 = 0.05317	994.9
x1 = 0.0729	1002.3
x1 = 0.07322	1002.5
x1 = 0.07707	1002.6
x1 = 0.0837	1006.6

CCCCC(CC)COP(=O)([O-])OCC(CC)CCCC.CCCCC(CC)COP(=O)([O-])OCC(CC)CCCC.CCCCC(CC)COP(=O)([O-])OCC(CC)CCCC.[Sm+3] (stereo not drawn) [samarium(III) bis(2-ethylhexyl) phosphate] + CCCCC(CC)COP(=O)(O)OCC(CC)CCCC
Details	mass density [kg/m3]
x1 = 0.00583	974
x1 = 0.01288	976.9
x1 = 0.01616	978.9
x1 = 0.02646	983.1
x1 = 0.03185	986.2
x1 = 0.03372	986.4
x1 = 0.05017	993.9
x1 = 0.05958	997.2
x1 = 0.06022	998.2
x1 = 0.07053	1001.8

CCCCC(CC)COP(=O)([O-])OCC(CC)CCCC.CCCCC(CC)COP(=O)([O-])OCC(CC)CCCC.CCCCC(CC)COP(=O)([O-])OCC(CC)CCCC.[Tb+3] (stereo not drawn) [terbium(III) bis(2-ethylhexyl) phosphate] + CCCCC(CC)COP(=O)(O)OCC(CC)CCCC
Details	mass density [kg/m3]
x1 = 0.00621	973.7
x1 = 0.0103	975.8
x1 = 0.01167	976.6
x1 = 0.01875	980
x1 = 0.02771	984.4
x1 = 0.04671	993.3
